This is an account of results in patent publication EP2329817A1, “Retinoic acid receptor antagonists, miR-10a inhibitors and inhibitors of HOXB1 or HOXB3 repressors for treating pancreatic cancer” (Ernst-Moritz-Arndt-Universität Greifswald, priority 2009, dated 2011).

The test system of one test is HOXB1. Put plainly: RT-PCR / RT-qPCR of HOXB1 expression. To be noted: quantitative PCR. The test is classed as cell-based, human. Here is the method: (§1) Northern Blot analysis was performed essentially according to Kloosterman et al. ^16 using a miR-10 LNA probe ([…]) (Exiqon, Denmark). We had previously described protocols for RT-PCR^17 and RT-qPCR^18 . Primers for the RT-PCR were: HOXB1: sc-38686 and HOXB3: sc-38690-PR and RARα: sc-29465-PR all from Santa Cruz Biotechnology. For quantitative RT-PCR we used 100 ng of total RNA and the Roche Master SYBR Green kit. Single-band amplification was verified by melting curve dissociation protocols. A standard curve for β-actin using 1, 5, 10, 100, and 500 ng of total RNA was used for normalization. RT-qPCR primers for HOXB1 were: forward 5'-[…]-3' and reverse 5'-[…]-3' and for HOXB3: forward 5'-[…]-3' and reverse 5'-[…]-3'.
(§2) PaTu-S and PaTu-T cells were treated (24h) as indicated with specific siRNAs against HOXB1 (B1) and HOXB3 (B3) (Co: DMSO control) in the presence or absence of Ro-41-5253. Migration of these cells was analysed after transplantation into zebrafish embryos (see Table 1) and downregulation of HOXB1 and HOXB3 expression in these cells was confirmed by PCR analysis (A).
(§3) A similar regulation is seen following incubation with miR-10a Morpholinos or with miR-10a siRNAs (right side; Control: control Morpholino or control-siRNA) (B). Results are normalized to β-actin expression and similar results were obtained in three independent experiments. […]

The test system of test [1] is miR-10a. Kind of test: cells. The test is classed as cell-based, human. Here is the method: Northern Blot analysis was performed essentially according to Kloosterman et al. ^16 using a miR-10 LNA probe ([…]) (Exiqon, Denmark). We had previously described protocols for RT-PCR^17 and RT-qPCR^18 . Primers for the RT-PCR were: HOXB1: sc-38686 and HOXB3: sc-38690-PR and RARα: sc-29465-PR all from Santa Cruz Biotechnology. For quantitative RT-PCR we used 100 ng of total RNA and the Roche Master SYBR Green kit. Single-band amplification was verified by melting curve dissociation protocols. A standard curve for β-actin using 1, 5, 10, 100, and 500 ng of total RNA was used for normalization. […]
PaTu-T cells were incubated as indicated, with DMSO (Co), 200 nM Ro-41-5253 (RARα inh), control-Morpholino, miR-10a Morpholino, miR-196 siRNA (Co), or RARα siRNA and PaTu-S cells were co-incubated with 1 µM retinoic acid (RA) and control siRNA, RARα siRNA or Ro-415253 and miR-10a expression was evaluated by Northern blot analysis (A). […] The effect of Ro-415253 on cell migration was analysed in an in vitro migration assay in PaTu-T cells. […]
PaTu-T cells were incubated for 24h with indicated concentrations of Ro-415253 and miR-10a expression was evaluated by northern blot analysis (upper panel). […] Patu-S cells were incubated tor 24h with indicated concentrations of ATRA and miR-10a expression was evaluated by northern blot analysis (upper panel). […]

The test system of a further test is HOXB3. Put plainly: RT-PCR / RT-qPCR of HOXB3 expression. The test is classed as cell-based, human. As to conditions: quantitative PCR. As for the experimental part: as §1, §2, §3
The target of another test is T1, RARα (Homo sapiens, UniProt P10276).
T1 sequence (P10276 1-462): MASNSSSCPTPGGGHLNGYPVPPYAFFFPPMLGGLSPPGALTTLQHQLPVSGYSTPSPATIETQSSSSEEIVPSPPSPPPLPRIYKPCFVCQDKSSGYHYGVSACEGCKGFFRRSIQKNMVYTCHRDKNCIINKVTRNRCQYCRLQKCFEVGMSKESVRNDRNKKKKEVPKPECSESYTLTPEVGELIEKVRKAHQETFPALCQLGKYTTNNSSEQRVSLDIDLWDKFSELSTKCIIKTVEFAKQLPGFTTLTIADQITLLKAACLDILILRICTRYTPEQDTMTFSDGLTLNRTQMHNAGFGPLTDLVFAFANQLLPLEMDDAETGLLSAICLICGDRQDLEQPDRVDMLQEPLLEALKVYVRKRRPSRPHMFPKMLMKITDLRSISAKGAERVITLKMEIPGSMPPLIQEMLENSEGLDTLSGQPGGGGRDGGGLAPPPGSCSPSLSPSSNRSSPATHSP
To be noted: literature references 14, 15; read-out: 50% inhibition; cited from earlier work.

Test [2] concerns miR-10a. Kind of test: Northern blot of miR-10a expression in PaTu-T cells (densitometry). In kind it is cell-based, human. As to conditions: for miR-10a expression: result in words. Here is the method: as §1
PaTu-T cells were incubated as indicated, with DMSO (Co), 200 nM Ro-41-5253 (RARα inh), control-Morpholino, miR-10a Morpholino, miR-196 siRNA (Co), or RARα siRNA and PaTu-S cells were co-incubated with 1 µM retinoic acid (RA) and control siRNA, RARα siRNA or Ro-415253 and miR-10a expression was evaluated by Northern blot analysis (A). […] RT-PCR control of GAPDH was used as a loading control (not shown). Dose response curves for RA and the RARα antagonist and the RT-PCR control for RARα siRNA treatment are shown in Supplemental Fig. 1. The effect of Ro-415253 on cell migration was analysed in an in vitro migration assay in PaTu-T cells. […] An actin re-blot confirmed equal loading.
PaTu-T cells were incubated for 24h with indicated concentrations of Ro-415253 and miR-10a expression was evaluated by northern blot analysis (upper panel). GAPDH loading control is shown in the lower panel. […] Patu-S cells were incubated tor 24h with indicated concentrations of ATRA and miR-10a expression was evaluated by northern blot analysis (upper panel). GAPDH loading control is shown in the lower panel. (C) Specific "knockdown" of RARα in PaTu-Tcells by RARα siRNA. RT-PCR from total RNA of RARα or control siRNA (Co) treated PaTu-T cells (24h) confirms specific knockdown of RARa. RT-PCR of GAPDH control is shown in the lower panel.

For the compound `CC1=C(/C=C/C(C)=C/C=C/C(C)=C/C(=O)O)C(C)(C)CCC1` [RA, all trans retinoic acid], the HOXB1 expression result with HOXB1 (PaTu-S cells) is “decreased”. For the same compound, in the test with miR-10a [1] (Homo sapiens, 24 h, read-out: miR-10a expression upregulated), the fold induction at 1 µM stood at 7.2. In the test with HOXB3 (PaTu-S cells), the HOXB3 expression result is “decreased”.
`CCCCCCCOc1cc2c(cc1/C(C)=C/c1ccc(C(=O)O)cc1)C(C)(C)CCS2(=O)=O` [Ro-41-5253, Benzoic acid, 4-(2-(7-(heptyloxy)-3,4-dihydro-4,4-dimethyl-2H-1-benzothiopyran-6-yl)-1-propenyl)-, S,S-dioxide, (E)]: the IC50 on RARα was 60 nM. Besides, the HOXB1 expression entry in the test on HOXB1 (PaTu-T cells) is listed as “increased”. In the test with miR-10a [1] (PaTu-S cells co-incubated with 1 µM retinoic acid), the “upregulation of miR-10a expression by retinoic acid” value was “completely blocked”. For the same compound, the HOXB3 expression result with HOXB3 (PaTu-T cells) was “increased”. The “reduction of miR-10a expression” value in the test with miR-10a [2] (densitometric analysis, Ro-41-5253 at 200 nM) came out at 9.4 fold. The miR-10a expression entry in the test on miR-10a [2] is recorded as “significant decrease”; with miR-10a [2] (listed as Ro-415253) it was “Dose dependent repression”.
